In the NIST ThermoML archive (doi:10.1021/je700260f):
± gives the expanded uncertainty stated by the source.

Settings: 313.15 K, Liquid, Vibrating tube method

FC(C(F)(F)F)C(F)(F)F [1,1,1,2,3,3,3-heptafluoropropane]
Settings	mass density [kg/m3]
6459 kPa	1373.4 ± 1.5
6490 kPa	1373.6 ± 1.5
6518 kPa	1373.8 ± 1.5
6545 kPa	1374 ± 1.5
6574 kPa	1374.3 ± 1.5
6602 kPa	1374.5 ± 1.5
6638 kPa	1374.7 ± 1.5
6666 kPa	1374.8 ± 1.5
6694 kPa	1375.2 ± 1.5
6718 kPa	1375.4 ± 1.5
6751 kPa	1375.5 ± 1.5
6776 kPa	1375.7 ± 1.5
6806 kPa	1376 ± 1.5
6835 kPa	1376 ± 1.5
6863 kPa	1376.4 ± 1.5
6883 kPa	1376.7 ± 1.5
6908 kPa	1376.8 ± 1.5
6938 kPa	1376.9 ± 1.5
6976 kPa	1377.1 ± 1.5
7006 kPa	1377.4 ± 1.5
7045 kPa	1377.7 ± 1.5
7079 kPa	1377.9 ± 1.5
7109 kPa	1378.2 ± 1.5
7139 kPa	1378.3 ± 1.5
7169 kPa	1378.7 ± 1.5
7198 kPa	1378.8 ± 1.5
7228 kPa	1379 ± 1.5
7266 kPa	1379.4 ± 1.5
7292 kPa	1379.5 ± 1.5
7326 kPa	1379.7 ± 1.5
7348 kPa	1379.9 ± 1.5
7382 kPa	1380.1 ± 1.5
7408 kPa	1380.3 ± 1.5
7438 kPa	1380.5 ± 1.5
7465 kPa	1380.7 ± 1.5
7501 kPa	1380.9 ± 1.5
7527 kPa	1381.2 ± 1.5
7556 kPa	1381.4 ± 1.5
7582 kPa	1381.6 ± 1.5
7612 kPa	1381.8 ± 1.5
7638 kPa	1382.1 ± 1.5
7677 kPa	1382.3 ± 1.5
7703 kPa	1382.3 ± 1.5
7742 kPa	1382.8 ± 1.5
7768 kPa	1382.8 ± 1.5
7798 kPa	1383 ± 1.5
7824 kPa	1383.2 ± 1.5
7851 kPa	1383.5 ± 1.5
7874 kPa	1383.6 ± 1.5
7910 kPa	1383.8 ± 1.5
7931 kPa	1383.9 ± 1.5
7958 kPa	1384.2 ± 1.5
7993 kPa	1384.3 ± 1.5
8020 kPa	1384.6 ± 1.5
8059 kPa	1384.9 ± 1.5
8094 kPa	1385 ± 1.5
8129 kPa	1385.4 ± 1.5
8156 kPa	1385.5 ± 1.5
8196 kPa	1385.9 ± 1.5
8223 kPa	1386 ± 1.5
8263 kPa	1386.4 ± 1.5
8295 kPa	1386.4 ± 1.5
8331 kPa	1386.7 ± 1.5
8367 kPa	1387 ± 1.5
8399 kPa	1387.1 ± 1.5
8430 kPa	1387.3 ± 1.5
8461 kPa	1387.6 ± 1.5
8497 kPa	1387.9 ± 1.5
8523 kPa	1388.2 ± 1.5
8564 kPa	1388.3 ± 1.5
8622 kPa	1388.8 ± 1.5
8654 kPa	1388.8 ± 1.5
8689 kPa	1389.1 ± 1.5
8720 kPa	1389.4 ± 1.5
8766 kPa	1389.7 ± 1.5
8798 kPa	1390 ± 1.5
8834 kPa	1390.1 ± 1.5
8861 kPa	1390.3 ± 1.5
8887 kPa	1390.6 ± 1.5
8915 kPa	1390.6 ± 1.5
8943 kPa	1390.9 ± 1.5
8979 kPa	1391.1 ± 1.5
9019 kPa	1391.5 ± 1.5
9044 kPa	1391.5 ± 1.5
9072 kPa	1391.7 ± 1.5
9097 kPa	1391.9 ± 1.5
9130 kPa	1392.1 ± 1.5
9160 kPa	1392.2 ± 1.5
9179 kPa	1392.3 ± 1.5
9214 kPa	1392.6 ± 1.5
9236 kPa	1392.7 ± 1.5
9263 kPa	1393 ± 1.5
9286 kPa	1393.1 ± 1.5
9320 kPa	1393.4 ± 1.5
9340 kPa	1393.4 ± 1.5
9367 kPa	1393.6 ± 1.5
9393 kPa	1393.8 ± 1.5
9419 kPa	1394 ± 1.5
9443 kPa	1394 ± 1.5
9465 kPa	1394.3 ± 1.5
9495 kPa	1394.3 ± 1.5
9518 kPa	1394.6 ± 1.5
9544 kPa	1394.8 ± 1.5
9564 kPa	1394.9 ± 1.5
9591 kPa	1395 ± 1.5
9619 kPa	1395.3 ± 1.5
9823 kPa	1396.6 ± 1.5
9856 kPa	1396.8 ± 1.5
9892 kPa	1397 ± 1.5
9921 kPa	1397.3 ± 1.5
9953 kPa	1397.4 ± 1.5
9987 kPa	1397.4 ± 1.5
10010 kPa	1397.7 ± 1.5
10062 kPa	1398.1 ± 1.5
10094 kPa	1398.2 ± 1.5
10123 kPa	1398.4 ± 1.5
10151 kPa	1398.5 ± 1.5
10183 kPa	1398.9 ± 1.5
10211 kPa	1399.1 ± 1.5
10247 kPa	1399.1 ± 1.5
10272 kPa	1399.3 ± 1.5
10301 kPa	1399.5 ± 1.5
10332 kPa	1399.8 ± 1.5
10361 kPa	1400 ± 1.5
10389 kPa	1400 ± 1.5
10421 kPa	1400.3 ± 1.5
10450 kPa	1400.4 ± 1.5
10482 kPa	1400.8 ± 1.5
10519 kPa	1401 ± 1.5
10547 kPa	1401.1 ± 1.5
10580 kPa	1401.3 ± 1.5
10609 kPa	1401.5 ± 1.5
10646 kPa	1401.7 ± 1.5
10680 kPa	1401.9 ± 1.5
10709 kPa	1402.1 ± 1.5
10743 kPa	1402.3 ± 1.5
10780 kPa	1402.5 ± 1.5
10813 kPa	1402.7 ± 1.5
10838 kPa	1402.9 ± 1.5
10871 kPa	1403.1 ± 1.5
10899 kPa	1403.2 ± 1.5
10928 kPa	1403.5 ± 1.5
10956 kPa	1403.5 ± 1.5
10981 kPa	1403.7 ± 1.5
11015 kPa	1404.1 ± 1.5
11048 kPa	1404.2 ± 1.5
11069 kPa	1404.4 ± 1.5
11102 kPa	1404.4 ± 1.5
11127 kPa	1404.6 ± 1.5
11164 kPa	1404.9 ± 1.5
11193 kPa	1405 ± 1.5
11222 kPa	1405.3 ± 1.5
11252 kPa	1405.4 ± 1.5
11278 kPa	1405.5 ± 1.5
11317 kPa	1405.7 ± 1.5
11360 kPa	1405.9 ± 1.5
11399 kPa	1406.3 ± 1.5
11424 kPa	1406.4 ± 1.5
11461 kPa	1406.5 ± 1.5
11486 kPa	1406.8 ± 1.5
11518 kPa	1406.9 ± 1.5
11544 kPa	1407.2 ± 1.5
11578 kPa	1407.4 ± 1.5
11628 kPa	1407.6 ± 1.5
11692 kPa	1408 ± 1.5
11726 kPa	1408.2 ± 1.5
11751 kPa	1408.3 ± 1.5
11788 kPa	1408.5 ± 1.5
11818 kPa	1408.8 ± 1.5
11860 kPa	1408.9 ± 1.5
11889 kPa	1409.2 ± 1.5
11927 kPa	1409.3 ± 1.5
11969 kPa	1409.5 ± 1.5
11998 kPa	1409.7 ± 1.5
12023 kPa	1409.9 ± 1.5
12048 kPa	1410.1 ± 1.5
12069 kPa	1410.1 ± 1.5
12099 kPa	1410.3 ± 1.5
12128 kPa	1410.6 ± 1.5
12165 kPa	1410.9 ± 1.5
12206 kPa	1410.9 ± 1.5
12231 kPa	1411.1 ± 1.5
12265 kPa	1411.4 ± 1.5
12294 kPa	1411.4 ± 1.5
12323 kPa	1411.6 ± 1.5
12344 kPa	1411.8 ± 1.5
12373 kPa	1411.9 ± 1.5
12407 kPa	1412.1 ± 1.5
12448 kPa	1412.4 ± 1.5
12477 kPa	1412.4 ± 1.5
12510 kPa	1412.8 ± 1.5
12532 kPa	1412.9 ± 1.5
12565 kPa	1413.1 ± 1.5
12616 kPa	1413.4 ± 1.5
12650 kPa	1413.4 ± 1.5
12689 kPa	1413.8 ± 1.5
12723 kPa	1413.9 ± 1.5
12749 kPa	1414.1 ± 1.6
12786 kPa	1414.2 ± 1.6
12813 kPa	1414.5 ± 1.6
12852 kPa	1414.7 ± 1.6
12888 kPa	1414.9 ± 1.6
12924 kPa	1415.1 ± 1.6
12959 kPa	1415.3 ± 1.6
12986 kPa	1415.4 ± 1.6
